target: T1, EHMT2 (Homo sapiens, UniProt Q96KQ7); experiment: MDA-MB-231 H3K9me2 in-cell Western assay (EHMT2 ICW); type: cell-based; details: Table VI; read-out: EHMT2 ICW IC50
T1 construct: host or cells: MDA-MB-231
T1 sequence (Q96KQ7 1-1210): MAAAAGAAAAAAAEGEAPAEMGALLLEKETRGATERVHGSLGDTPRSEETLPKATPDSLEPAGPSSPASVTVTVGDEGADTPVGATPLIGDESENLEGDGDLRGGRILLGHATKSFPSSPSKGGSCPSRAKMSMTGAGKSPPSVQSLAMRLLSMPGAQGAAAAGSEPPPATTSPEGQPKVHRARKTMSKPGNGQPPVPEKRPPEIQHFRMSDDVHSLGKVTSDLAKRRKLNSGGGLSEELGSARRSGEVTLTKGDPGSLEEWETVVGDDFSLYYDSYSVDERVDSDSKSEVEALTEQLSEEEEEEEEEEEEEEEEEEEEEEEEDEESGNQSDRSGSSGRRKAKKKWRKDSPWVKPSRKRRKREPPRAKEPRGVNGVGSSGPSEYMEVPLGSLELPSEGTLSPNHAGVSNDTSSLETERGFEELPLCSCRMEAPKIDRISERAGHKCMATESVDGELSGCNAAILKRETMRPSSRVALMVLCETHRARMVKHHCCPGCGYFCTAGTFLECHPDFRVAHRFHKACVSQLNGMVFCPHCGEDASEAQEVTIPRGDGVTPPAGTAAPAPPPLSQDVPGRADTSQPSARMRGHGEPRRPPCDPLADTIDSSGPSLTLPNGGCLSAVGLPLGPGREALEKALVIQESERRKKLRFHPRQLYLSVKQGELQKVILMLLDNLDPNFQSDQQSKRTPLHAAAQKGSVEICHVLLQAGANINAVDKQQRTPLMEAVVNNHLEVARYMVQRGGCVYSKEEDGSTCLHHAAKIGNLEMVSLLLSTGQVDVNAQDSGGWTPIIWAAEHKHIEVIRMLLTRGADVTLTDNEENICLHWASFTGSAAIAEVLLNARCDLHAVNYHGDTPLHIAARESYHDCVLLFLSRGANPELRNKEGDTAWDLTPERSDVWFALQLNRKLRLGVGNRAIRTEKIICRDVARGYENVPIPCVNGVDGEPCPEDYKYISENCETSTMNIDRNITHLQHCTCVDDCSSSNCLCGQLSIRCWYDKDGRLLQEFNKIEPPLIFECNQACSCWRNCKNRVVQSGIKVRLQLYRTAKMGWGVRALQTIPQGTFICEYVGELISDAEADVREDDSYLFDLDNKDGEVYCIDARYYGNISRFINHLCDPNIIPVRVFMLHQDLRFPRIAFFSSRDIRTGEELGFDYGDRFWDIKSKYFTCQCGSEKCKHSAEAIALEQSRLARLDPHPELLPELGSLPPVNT
Outline: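 Cells seeded at 3,000/well onto pre-dispensed compound; 30 min RT, then 48 h 37 °C/5% CO2. PFA fix, block, α-H3K9me2 1:800 o/n 4 °C, 800CW secondary + DRAQ5. Odyssey scan 700/800 nm; ratio → % inhibition → 4-parameter IC50.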

Row | IC50 [nM] | SMILES
1 | 1000 to 10000 | CNc1nc(C2CCN(C3CCOC3)CC2)c2cc(OC)c(OCCCN3CCCC3)cc2n1 (stereo not drawn) [Compound 759]
2 | > 10000 | COc1cc2c(C3CCN(C4CCOC4)CC3)nc(C)nc2cc1OCCCN1CCCC1 (stereo not drawn) [Compound 760]

same assay, conditions: Table VII; read-out: EHMT2 ICW IC50

Row | IC50 [nM] | SMILES
3 | 100 to 1000 | CNc1cc(C)nc(Nc2ccc(OC)c(OC[C@H](O)CN3CC(C)C3)c2)n1 [Compound 1099]
4 | 1000 to 10000 | CNC[C@@H](O)COc1cc(Nc2nccc(NC)n2)ccc1OC [Compound 1054]
5 | 100 to 1000 | CNc1ccnc(Nc2cnc(OC)c(OCCCN3CCCC3)c2)n1 [Compound 1048]
6 | < 100 | CNc1cc(C)nc(Nc2ccc(OC)c(CNCCN3CCC3)c2)n1 [Compound 1081]
7 | 100 to 1000 | CNCC(C)NCc1cc(Nc2nc(C)cc(NC)n2)ccc1OC (stereo not drawn) [Compound 1090]
8 | > 10000 | CNc1ccnc(Nc2ccc(OC)c(OC[C@@H]3CNCCO3)c2)n1 [Compound 1072]
9 | > 10000 | CCN1CCC(O)(COc2cc(Nc3nccc(NC)n3)ccc2OC)C1 (stereo not drawn) [Compound 1096]
10 | 1000 to 10000 | CNCCNCc1cc(Nc2nccc(NC)n2)ccc1OC [Compound 1076]
11 | > 10000 | CNc1ccnc(Nc2ccc(OC)c(ONC[C@@H]3CCCN3)c2)n1 [Compound 1061]
12 | 100 to 1000 | CNc1ccnc(Nc2ccc(OC)c(OC[C@H](O)CN3CCC3)c2)n1 [Compound 1047]
13 | 100 to 1000 | CCN1CC[C@@H](COc2cc(Nc3nccc(NC)n3)ccc2OC)C1 [Compound 1055]
14 | > 10000 | CNc1ccnc(Nc2ccc(OC)c(CNC[C@H]3CCCN3)c2)n1 [Compound 1062]
15 | 1000 to 10000 | CNc1cc(C)nc(Nc2ccc(OC)c(OC[C@H](O)CN3CC(C)C3)c2)n1 [Compound 1100]
